US20260274892A1, “MACROCYCLIC BROAD SPECTRUM ANTIBIOTICS” (RQx Pharmaceuticals, Inc., priority 2017, published 2026)

Legend:
[1] = system: Methicillin Resistant Staphylococcus aureus strain USA 200; experiment: Minimum inhibitory concentration (MIC), CLSI broth micro-dilution, S. aureus; assay type: cell-based; conditions: Staphylococcus aureus, MRSA / USA200, MRSA USA 200, cation adjusted Mueller Hinton Broth + 0.002% Tween-80, 35° C., 22 hours
In short: (§1)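 Colonies grown 20 h at 35° C on Trypticase Soy agar (MRSA) or Luria agar (E. coli) were suspended in cation-adjusted Mueller Hinton broth with 0.002% Tween-80. Suspensions were added at OD600 0.0005 to 10-point twofold compound dilutions, then incubated 22 h at 35° C.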

[2] = system: Escherichia coli ATCC 25922; experiment: Minimum inhibitory concentration (MIC), CLSI broth micro-dilution, E. coli; assay type: cell-based; conditions: Escherichia coli, ATCC25922, 22 h
In short: as §1

[3] = Table 6, cation adjusted Mueller Hinton Broth + 0.002% Tween-80, 35° C.

| SMILES | MIC ([1]; Table 6) [µM] | MIC [2, 3] [µM] | MIC ([1]; Table 8) [µM] | MIC ([2]; Table 8, cation adjusted Mueller Hinton Broth + 0.002% Tween-80, 35° C.) [µM] |
| --- | --- | --- | --- | --- |
| Cc1nc(-c2ccc(C(C)(C)C)cc2)nc(C)c1C(=O)N[C@@H](COCCN)C(=O)N(C)[C@@H]1C(=O)N[C@@H](C)C(=O)N[C@H](C(=O)NCC#N)Cc2ccc(OCCN)c(c2)-c2cc1ccc2OCCN (racemic) [Compound 495, rac-(8S,11S,14S)-3,18-bis(2-aminoethoxy)-N-(cyanomethyl)-11-methyl-14-[methyl-[rac-(2S)-3-(2-aminoethoxy)-2-[[2-(4-tert-butylphenyl)-4,6-dimethyl-pyrimidine-5-carbonyl]amino]propanoyl]amino]-10,13-dioxo-9,12-diazatricyclo[13.3.1.12,6]icosa-1(18),2(20),3,5,15(19),16-hexaene-8-carboxamide] | 0.031 | 1 |  |  |
| Cc1nc(-c2ccc(N3CCC(F)(F)CC3)cc2)nc(C)c1C(=O)N[C@@H](CCN)C(=O)N(C)[C@@H]1C(=O)N[C@@H](C)C(=O)N[C@H](C(=O)NCC#N)Cc2ccc(OCCN)c(c2)-c2cc1ccc2OCCN (racemic) [Compound 322, rac-(8S,11S,14S)-3,18-bis(2-aminoethoxy)-N-(cyanomethyl)-11-methyl-14-[methyl-[rac-(2S)-4-amino-2-[[2-[4-(4,4-difluoro-1-piperidyl)phenyl]-4,6-dimethyl-pyrimidine-5-carbonyl]amino]butanoyl]amino]-10,13-dioxo-9,12-diazatricyclo[13.3.1.12,6]icosa-1(18),2(20),3,5,15(19),16-hexaene-8-carboxamide] | 0.15 | 0.6 |  |  |
| Cc1nc(-c2ccc(OC3CCCCC3)cc2)nc(C)c1C(=O)N[C@@H](CCNC(N)=O)C(=O)N(C)[C@@H]1C(=O)N[C@@H](C)C(=O)N[C@H](C(=O)NCC#N)Cc2ccc(OCCN)c(c2)-c2cc1ccc2OCCN [Compound 498, (8S,11S,14S)-3,18-bis(2-aminoethoxy)-N-(cyanomethyl)-14-[[(2S)-2-[[2-[4-(cyclohexoxy)phenyl]-4,6-dimethyl-pyrimidine-5-carbonyl]amino]-4-ureido-butanoyl]-methyl-amino]-11-methyl-10,13-dioxo-9,12-diazatricyclo[13.3.1.12,6]icosa-1(18),2(20),3,5,15(19),16-hexaene-8-carboxamide] | 0.063 | 1 |  |  |
| CCCCCCc1ncc(-c2ccc(C(=O)N[C@@H](CCN)C(=O)N(C)[C@@H]3C(=O)N[C@@H](C)C(=O)N[C@H](C(=O)NCC#N)Cc4ccc(OCCN)c(c4)-c4cc3ccc4OCCN)c(C(F)F)c2)cn1 (racemic) [Compound 388, rac-(8S,11S,14S)-3,18-bis(2-aminoethoxy)-N-(cyanomethyl)-11-methyl-14-[methyl-[rac-(2S)-4-amino-2-[[2-(difluoromethyl)-4-(2-hexylpyrimidin-5-yl)benzoyl]amino]butanoyl]amino]-10,13-dioxo-9,12-diazatricyclo[13.3.1.12,6]icosa-1(18),2(20),3,5,15(19),16-hexaene-8-carboxamide] | 0.031 | 1 |  |  |
| Cc1nc(-c2ccc(C(C)(C)C)cc2)nc(C)c1C(=O)N[C@@H](CCN)C(=O)N(C)[C@@H]1C(=O)N[C@@H](C)C(=O)N[C@H](C(=O)O)Cc2ccc(O)c(c2)-c2cc1ccc2OCCN (racemic) [Compound 646, rac-(8S,11S,14S)-18-(2-aminoethoxy)-3-hydroxy-11-methyl-14-[methyl-[rac-(2S)-4-amino-2-[[2-(4-tert-butylphenyl)-4,6-dimethyl-pyrimidine-5-carbonyl]amino]butanoyl]amino]-10,13-dioxo-9,12-diazatricyclo [13.3.1.12,6]icosa-1(18),2(20),3,5,15(19), 16-hexaene-8-carboxylic acid] |  |  | 1.1 | 0.37 |
| CCCCCCCCc1ccc(C(=O)N[C@@H](CCC(=O)NC(CO)CO)C(=O)N(C)[C@@H]2C(=O)N[C@@H](C)C(=O)N[C@H](C(=O)NCC#N)Cc3ccc(OCCN)c(c3)-c3cc2ccc3OCCN)c(C)c1 (racemic) [Compound 448, rac-(2S)-N′-[2-hydroxy-1-(hydroxymethyl)ethyl]-N-methyl-2-[(2-methyl-4-octyl-benzoyl)amino]-N-[rac-(7S,10S,13S)-3,18-bis(2-aminoethoxy)-13-(cyanomethylcarbamoyl)-10-methyl-8,11-dioxo-9,12-diazatricyclo[13.3.1.12,6]icosa-1(19),2,4,6(20),15,17-hexaen-7-yl]pentanediamide] | 0.13 | 4.1 |  |  |
| CCCCc1ccc(-c2ncc(C(=O)N[C@@H](CCN)C(=O)N(C)[C@@H]3C(=O)N[C@@H](C)C(=O)N[C@H](C(=O)NCC#N)Cc4ccc(OCCN)c(c4)-c4cc3ccc4OCCN)c(C)n2)c(C)c1 (racemic) [Compound 223, rac-(8S,11S,14S)-3,18-bis(2-aminoethoxy)-N-(cyanomethyl)-11-methyl-14-[methyl-[rac-(2S)-4-amino-2-[[2-(4-butyl-2-methyl-phenyl)-4-methyl-pyrimidine-5-carbonyl]amino]butanoyl]amino]-10,13-dioxo-9,12-diazatricyclo[13.3.1.12,6]icosa-1(18),2(20),3,5,15(19),16-hexaene-8-carboxamide] | 0.016 | 0.26 |  |  |
| Cc1nc(-c2ccc(O)cc2)ncc1C(=O)N[C@@H](CCN)C(=O)N(C)[C@@H]1C(=O)N[C@@H](C)C(=O)N[C@H](C(=O)NCC#N)Cc2ccc(OCCN)c(c2)-c2cc1ccc2OCCN (racemic) [Compound 524, rac-(8S,11S,14S)-3,18-bis(2-aminoethoxy)-N-(cyanomethyl)-11-methyl-14-[methyl-[rac-(2S)-4-amino-2-[[2-(4-hydroxyphenyl)-4-methyl-pyrimidine-5-carbonyl]amino]butanoyl]amino]-10,13-dioxo-9,12-diazatricyclo[13.3.1.12,6]icosa-1(18),2(20),3,5,15(19),16-hexaene-8-carboxamide] | 0.56 | 4.5 |  |  |
| C[C@@H]1NC(=O)[C@@H](N(C)C(=O)[C@H](CCN)NC(=O)c2c(N)nc(-c3ccc(C(C)(C)C)cc3)nc2N)c2ccc(OCCN)c(c2)-c2cc(ccc2OCCN)C[C@@H](C(=O)NCC#N)NC1=O (racemic) [Compound 429, rac-(8S,11S,14S)-3,18-bis(2-aminoethoxy)-N-(cyanomethyl)-11-methyl-14-[methyl-[rac-(2S)-4-amino-2-[[4,6-diamino-2-(4-tert-butylphenyl)pyrimidine-5-carbonyl]amino]butanoyl]amino]-10,13-dioxo-9,12-diazatricyclo[13.3.1.12,6]icosa-1(18),2(20),3,5,15(19),16-hexaene-8-carboxamide] | 0.023 | 1 |  |  |
| Cc1nc(-c2ccc3c(c2)CCCC3)ncc1C(=O)N[C@@H](CCN)C(=O)N(C)[C@@H]1C(=O)N[C@@H](C)C(=O)N[C@H](C(=O)NCC#N)Cc2ccc(OCCN)c(c2)-c2cc1ccc2OCCN (racemic) [Compound 216, rac-(8S,11S,14S)-3,18-bis(2-aminoethoxy)-N-(cyanomethyl)-11-methyl-14-[methyl-[rac-(2S)-4-amino-2-[(4-methyl-2-tetralin-6-yl-pyrimidine-5-carbonyl)amino]butanoyl]amino]-10,13-dioxo-9,12-diazatricyclo[13.3.1.12,6]icosa-1(18),2(20),3,5,15(19),16-hexaene-8-carboxamide] | 0.0084 | 0.2 |  |  |
| Cc1nc(-c2ccc(C(C)(C)C)cc2)c([N+](=O)[O-])cc1C(=O)N[C@@H](CCN)C(=O)N(C)[C@@H]1C(=O)N[C@@H](C)C(=O)N[C@H](C(=O)NCC#N)Cc2ccc(OCCN)c(c2)-c2cc1ccc2OCCN (racemic) [Compound 406, rac-(8S,11S,14S)-3,18-bis(2-aminoethoxy)-N-(cyanomethyl)-11-methyl-14-[methyl-[rac-(2S)-4-amino-2-[[6-(4-tert-butylphenyl)-2-methyl-5-nitro-pyridine-3-carbonyl]amino]butanoyl]amino]-10,13-dioxo-9,12-diazatricyclo[13.3.1.12,6]icosa-1(18),2(20),3,5,15(19),16-hexaene-8-carboxamide] | 0.023 | 0.25 |  |  |
| Cc1nc(-c2ccc(C3(C(F)(F)F)CC3)cc2)ncc1C(=O)N[C@@H](CCN)C(=O)N(C)[C@@H]1C(=O)N[C@@H](C)C(=O)N[C@H](C(=O)NCC#N)Cc2ccc(OCCN)c(c2)-c2cc1ccc2OCCN (racemic) [Compound 219, rac-(8S,11S,14S)-3,18-bis(2-aminoethoxy)-N-(cyanomethyl)-11-methyl-14-[methyl-[rac-(2S)-4-amino-2-[[4-methyl-2-[4-[1-(trifluoromethyl)cyclopropyl]phenyl]pyrimidine-5-carbonyl]amino]butanoyl]amino]-10,13-dioxo-9,12-diazatricyclo[13.3.1.12,6]icosa-1(18),2(20),3,5,15(19),16-hexaene-8-carboxamide] | 0.012 | 0.13 |  |  |
| Cc1nc2ccc(Oc3ccc(C(C)(C)C)cc3)cc2cc1C(=O)N[C@@H](CCN)C(=O)N(C)[C@@H]1C(=O)N[C@@H](C)C(=O)N[C@H](C(=O)NCC#N)Cc2ccc(OCCN)c(c2)-c2cc1ccc2OCCN (racemic) [Compound 397, rac-(8S,11S,14S)-3,18-bis(2-aminoethoxy)-N-(cyanomethyl)-11-methyl-14-[methyl-[rac-(2S)-4-amino-2-[[6-(4-tert-butylphenoxy)-2-methyl-quinoline-3-carbonyl]amino]butanoyl]amino]-10,13-dioxo-9,12-diazatricyclo[13.3.1.12,6]icosa-1(18),2(20),3,5,15(19),16-hexaene-8-carboxamide] | 0.023 | 0.38 |  |  |
